Experimental data as given in US8877889B2, “Tumor cell-killing peptides” (Industry-Academic Cooperation Foundation, Chosun University, priority 2009, dated 2014).
“Also recorded” adds a separate entry of the source.

Key:
HeLa cells [1] = assay: Live cell images and annexin V / SYTOX Green staining of dying cells; type: cell-based
Experimental: (§1) (A) HeLa cells were treated with MTD peptides (10 μM), or TRAIL (100 ng/ml). Images were taken at the indicated times (upper panel). Jurkat cells were treated with MTD peptide (10 μM) for 10 minutes, cells were processed for TEM. Images were obtained with 4,000× magnification (lower panel). N: nucleus, M: mitochondrion.
(D) HeLa cells were treated with the MTD (5 μM) peptide with or without the pretreatment of 10 μM BAPTA-AM for 2 hours. Live cell images were serially acquired at 10-second intervals for 10 minutes and shown at the indicated times.
(A) HeLa cells were stained with FITC-conjugated Annexin V antibody at 10 minutes after DMSO or MTD treatment. Images were obtained under the confocal microscope.
(B) HeLa cells were stained with SYTOX Green 10 minutes after DMSO or MTD treatment. Images were obtained using confocal microscope.

Jurkat cells = assay: Transmission electron microscopy of peptide-treated cells; type: cell-based; conditions: 10 μM for 10 minutes
Experimental: as §1
(§2) Jurkat cells or isolated mitochondria treated with MTD peptides were harvested by centrifugation and fixed with 2.5% glutaraldehyde for 2 hours followed by washing with 0.2 M sodium cacodylate buffer (pH 7.2) three times for 10-20 minutes. Fixation step was repeated overnight and washed with 0.2 M sodium cacodylate buffer three times. Samples were dehydrated with following sequential solutions 60% ethanol, 70% ethanol, 80% ethanol, 90% ethanol, 95% ethanol, and 100% ethanol twice for 20 minutes at 4° C., and then infiltrated by propylene oxide three times for 20 minutes. Samples were embedded with the mixture of propylene oxide and epon for 6 hours. Electron microscopic images were obtained using the Hitachi H-7600 electron microscope (80 kV, Hitachi, Tokyo, Japan). Mitochondria were isolated from mouse liver as previously described (1).

[2] = test system: Isolated mouse liver mitochondria; assay: Isolated mitochondria treated with peptide, transmission electron microscopy; conditions: 10 μM peptide; 1 hour at 30° C.
Experimental: (D) Isolated mouse liver mitochondria were treated with buffer (NT), MTD peptide (10 μM), or MTDmt5 peptide (10 μM), and then incubated for 1 hour at 30° C. Mitochondria were harvested by centrifugation (10,000×rpm) and then processed for transmission electron microscopy. Images (upper panel) were obtained with 7,000× magnification, and the relative mitochondrial sizes (lower panel) were calculated by measuring the diameters of about 40 individual mitochondria.
as §2

HeLa cells [3] = assay: Cytochrome c release by immunofluorescence; type: cell-based; conditions: HeLa cells; MTD peptide 5 μM
Experimental: (B) Plasmids (control vector or Noxa WT fused to GFP) were transfected into HeLa cells. After 2 days in the presence of zVAD-fmk, cytochrome c was stained with anti-cytochrome c antibody. Arrows indicate the diffused cytochrome c staining (upper panel). The release of cytochrome c was analyzed by immunofluorescence in HeLa cells after treatment with MTD peptides (5 μM) (lower panel).

NCI-H460 cells = assay: Peptide-induced cell death in NCI-H460 cells; type: cell-based; conditions: 5 μM, 2 or 5 hours (FIG. 3C)
Experimental: (C) NCI-H460 cells were treated with indicated peptides for 2 hours or 5 hours. % cell death was determined as described above.

A549 cells = assay: Peptide-induced cell death in A549 cells; type: cell-based; conditions: 5 μM, 1, 2 or 5 hours (FIG. 3D)
Experimental: (D) A549 cells were treated with indicated peptides for 1, 2, or 5 hours. % cell death was determined as described above.

HeLa cells [4] = assay: Peptide-induced cell death, counting dead and survived cells under the light microscope; type: cell-based; conditions: peptides 10 μM, 20 μM, 30 μM, 10 minutes after treatment (FIG. 1B, 3A)
Experimental: (B) HeLa cells were treated with DMSO or the indicated peptides in increasing doses (10 μM, 20 μM, and 30 μM). % of cell death was determined at 10 minutes after treatment by counting the dead cells and survived cells under the light microscope.
(E) HeLa cells were transfected with substitution mutants of MTD peptide.
HeLa cells were treated with DMSO or with the indicated peptides at increasing doses (10 μM, 20 μM, or 30 μM). % cell death was determined 10 minutes after treatment by counting the dead cells and survived cells (300 cells per sample) under the light microscope.
(D) HeLa cells were treated with indicated amounts of MTD peptide for 1 hour, 2 hours, or 5 hours. % cell death was calculated by counting the dead cells and survived cells (200 to 500 cells per sample) under the light microscope. Data represent the means±SD of three independent experiments.

HeLa cells [5] = assay: HMGB1 release into the media, western blot; type: cell-based; conditions: 10 μM, 10 to 30 minutes, serum-free medium
Experimental: (C) HeLa cells were treated with DMSO or MTD peptides (10 μM) for 10 minutes or 30 minutes in the serum-free culture medium. After treatment, culture mediums were collected. Proteins in the conditioned media were precipitated by 2.5 vol. of methanol and 0.1 vol. of 5M NaCl. Precipitates and cell lysates were subjected to SDS-PAGE and western blot analysis with anti-HMGB1 antibody (R&D systems, Minneapolis, Minn.).

HeLa cells [6] = assay: Caspase activation, western blot of cell lysates; type: cell-based; conditions: 5 μM peptide
Experimental: (E) After treatment with the MTD peptide, MTDmt4, or MTDmt5 (5 μM) in HeLa cells, cell lysates were prepared at indicated times. Equal amounts of proteins were subjected to the SDS-PAGE and blotted onto PVDF membrane. After blocked with 5% nonfat milk in TBST (10 mM Tris-HCl, pH 7.5, 100 mM NaCl and 0.1% Tween-20), the membrane was probed with anti-caspase-3 (SantaCruz Biotechnology, Inc., Santa Cruz, Calif., USA), anti-caspase-8 (Cell signaling technology, Beverly, Mass., USA), anti-caspase-9 (SantaCruz Biotechnology, Inc., Santa Cruz, Calif.), anti-XIAP (Upstate Biotechnology, Dundee, United Kingdom), or anti-Bid (home-made) antibodies. Anti-actin antibody (Chemicon International, Inc., Temecula, Calif., USA) was used as equal loading control.

HeLa cells [7] = assay: Measurement of intracellular calcium with Fluo-4-AM; type: cell-based; conditions: 3 μM peptide
Experimental: (A-C) HeLa cells were loaded with 3 μM Fluo-4-AM for 30 minutes and then treated with 3 μM of indicated peptides (A: MTD, B: MTDmt3, C: MTDmt5). Fluorescence images and bright-field images were obtained with the laser scanning confocal microscope at 5-second intervals for 5 minutes. Relative fluorescence intensities (F/F0) at two region-of-interests (ROI 1 and 2) were measured at 5-second intervals for 5 minutes.
(E-G) HeLa cells were pretreated in calcium free KRB media alone (E), in KRB media with 10 μM 2-APB and 20 μM Ryanodine (F), or in KRB media with freshly made 30 μM CsA (G) for 2 hours. HeLa cells were then loaded with 3 μM Fluo-4-AM for 30 minutes and treated with 3 μM of MTD peptide. Images were obtained with the laser scanning confocal microscope at 5-second intervals for 5 minutes. Relative fluorescence intensities (F/F0) at two region-of-interests (ROI 1 and 2) were measured at 5-second intervals for 5 minutes.
For Ca^2+ measurements in the cytosol, HeLa cells were cultured in an Lab-Tek™ Chamber glass slide and loaded with Fluo-4-AM (Fluo-4-acetoxymethyl ester) at a final concentration of 3 μM for 30 minutes, followed by washing with PBS (Phosphate buffered saline) at pH 7.4 and the addition of fresh Ca^2+-free Krebs-ringer modified buffer (KRB: 125 mM NaCl, 5 mM KCl, 1 mM Na3PO4, 1 mM MgSO4, 5.5 mM glucose, and 20 mM HEPES, pH 7.4, at 37° C.) containing the indicated peptides. Time-lapse images were obtained at 488 nm excitation with the Argon laser scanning confocal microscope (Leica TCS SP5 Microsystems, Mannheim, Germany) at 10-second intervals for 5 minutes to visualize Fluo-4-AM.

mPT pore = assay: Cobalt-quenched calcein assay; type: cell-based; conditions: HeLa cells; within 5 minutes after treatment
Experimental: (A) HeLa cells were loaded with 1 μM Calcein-AM and 2 mM cobalt for 15 minutes, and the mitochondria were stained by adding 25 μM MitoTracker for 2 minutes. The representative image of the calcein signals (green) that were overlapped with MitoTracker (Red) was shown.
(B) Time-lapse images of calcein and MitoTracker signals from HeLa cells that were not treated (top panel) or treated (bottom panel) with MTD peptide were obtained at 10-second intervals for 5 minutes. The representative images at the indicated time points were shown.
HeLa cells were loaded with 1 μM Calcein-AM and 2 mM cobalt in serum-free DMEM for 15 minutes, followed by adding 25 μM MitoTracker for 2 minutes to stain the mitochondria. Then, HeLa cells were briefly washed with HBSS (Hank's Buffered Salt Solution) and were treated with MTD peptide in calcium-free media containing 10% FBS (Fetal bovine serum). Time-lapse images were obtained at 10-second intervals for 10 minutes.

## RRRRRRRRGRQKLLNLISKLF [MTD]
HeLa cells [1]; 10 minutes after treatment
  annexin V and SYTOX Green staining: stained with annexin V and SYTOX Green
HeLa cells [1]; MTD peptide 10 μM or TRAIL 100 ng/ml (FIG. 2A, 7A, 7B)
  morphology of dying cells: bubble-like structures of dying cells; also recorded: swollen cytoplasmic membrane
Jurkat cells
  ultrastructural changes by transmission electron microscopy: swollen mitochondria, the enlarged nucleus and cell membrane swelling; also recorded: swelled mitochondria
[2]
  morphological changes or mitochondrial size changes of isolated mitochondria: did not show any morphological changes or mitochondrial size changes; also recorded: no morphological changes
HeLa cells [3]
  cytochrome c release from the mitochondria to the cytosol: not released; also recorded: neither cytochrome c release
NCI-H460 cells
  susceptibility of cells to peptide: very susceptible
A549 cells
  susceptibility of cells to peptide: very resistant
HeLa cells [4]
  cell death-inducing activity (% of cell death): comparable cell death-inducing activity to NoxaBH3MTD peptide
HeLa cells [5]
  HMGB1 release to the media: significantly released to the media
HeLa cells [6]
  caspase activation: not activated
HeLa cells [7]
  cytosolic calcium level change: substantially increased
  time to cytosolic calcium increase after treatment: 1 to 3 min
mPT pore
  mitochondrial calcein signals (mPT pore opening): significantly decreased
